What was measured:
KCC2 = test: FluxOR fluorescence based thallium (Tl+) influx assay on KCC2-expressing HEK293 cells; format: cell-based; settings: for effect on KCC2 activity, normalized to the maximal effect obtained with compound 1: 30 μM, HEK KCC2 cells, 15 minutes incubation
Experimental: Wild-type or KCC2-expressing Human Embryonic Kidney (HEK) 293 cells (provided by Prof. Eric Delpire Department of Anesthesiology, Vanderbilt University Medical Center, Nashville, Tenn.) were grown up to 80-90% confluence in DMEM/Ham's F-12 (1:1) (Life technologies, Carlsbad, Calif., USA) supplemented with 10% FBS (Life technologies), 50 units/mL penicillin, and 50 µg/mL streptomycin (Life technologies). KCC2-expressing clones were under puromycin selection (20 μg/ml, Life technologies).
The FluxOR™ potassium ion channel assay (Life Technologies Carlsbad, Calif., USA) was performed as outlined in the product information sheet and an earlier published study (Delpire et al., 2009, Proc. Natl. Acad. Sci. USA, 106, 5383-88) to assess KCC2 activity, and adapted to semi-automated high throughput screening. The experiment was performed in the presence of ouabain 200 μM and bumetanide 10 μM in all buffers to block the Na^+/K^+ pump and NKCC1 cotransporters, respectively. Briefly, cells in suspension were incubated in the loading buffer containing the dye at room temperature for 90 min (1/2000 dilution of FluxOR reagent) at the density of 100.000 cells/75 μl, then centrifugated and resuspended in Assay buffer at the same cell density. A number of 100.000 cells (75 μl) were manually handled in each well to the 96-wells black-walled, μclear-bottom plates (Greiner Bio-One, Monroe, N.C., USA) and 5 μl of chemical compounds 1-8 at different concentrations in PBS 1% DMSO (5, 30 and 50 μM) were added to the plates using the Biomek® NX Laboratory automation workstation (Beckman Coulter, Villepinte, France). After 15 minutes incubation, baseline fluorescent signal was measured with the Polarstar omega microplate reader (490 nm excitation and 520 nm emission, BMG Labtech). Then 20 μL per well of 5× thallium stimulus buffer (final concentrations: Tl^+: 2 mM, K^+: 10 mM) was injected and fluorescent signal was read 30 minutes later.
For each plate, 2 columns were dedicated to controls (cell density range from 0.25 to 1.10^5 cells; loading buffer as blank; untreated or treated with NEM (33 μM, for 15 min) wild-type and KCC2-expressing HEK293 cells).
Baseline fluorescent value was subtracted from the fluorescent value measured 30 min after stimulus buffer injection for each well, and this difference was normalized to the number of cells. […] Values converted to percentages such that the maximum of ratio is 100%.

HEK cells = test: PrestoBlue cell viability assay (cytotoxicity); format: cell-based, Human; settings: 30 μM
Experimental: Cytotoxicity were evaluated with fluorescent viability assay on HEK cells lines incubated 1 h with several concentrations of drugs. TC50: Toxic Concentration for 50% of the population.
After stimulus buffer induced signal acquisition, PrestoBlue® Cell Viability Reagent (Life technologies), a cell permeable resazurin-based solution was used according to manufacturer procedure as a cell viability indicator (Excitation/Emission (nm): 535-560/590-615).

SMILES	effect on KCC2 activity, normalized to the maximal effect obtained with compound 1 (KCC2) [%]	specific activation of KCC2 across a dose range (KCC2; HEK KCC2 compared to WT HEK cells, non-cytotoxic dose range)	cytotoxicity (HEK cells)
OCCN1CCN(CCCN2c3ccccc3Sc3ccc(Cl)cc32)CC1 [compound 1, 2-[4-[3-(2-chloro-10H-phenothiazin-10-yl)propyl]piperazin-1-yl]ethanol]	100	activate specifically KCC2 in a dose dependant manner	
CN1CCN(CCCN2c3ccccc3Sc3ccccc32)CC1 [compound 7, 10-[3-(4-methylpiperazin-1-yl)propyl]-10H-phenothiazine]	55		
CCSc1ccc2c(c1)N(CCCN1CCN(C)CC1)c1ccccc1S2 [compound 8, 2-(ethylthio)-10-[3-(4-methylpiperazin-1-yl)propyl]-10H-phenothiazine]			cytotoxic
